Reference: US20060100431A1, “Biologically active compounds” (Amura Therapeutics Limited, priority 2002, published 2006)

Columns and labels:
Type in all cases: biochemical
Wild-type cruzipain = Wild-type cruzipain (Trypanosoma cruzi, UniProt P25779); assay: Trypanosoma cruzi cruzipain peptidase activity assay (Ki); conditions: read-out: Ki, inhibitors of cruzain and cruzipains
How it was run: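 Native cruzipain from T. cruzi Dm28 epimastigotes, 2.5 nM, in 100 mM sodium phosphate pH 6.75 with 1 mM EDTA and 10 mM L-cysteine, 25 °C, DMSO <1%. Rates taken from continuous fluorogenic substrate read; Ki by regression assuming reversible pure-competitive inhibition.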

human cathepsin L = molecular target: T1, human cathepsin L (Homo sapiens, UniProt P07711); assay: Cathepsin L peptidase activity assay (Ki); conditions: read-out: Ki, inhibitors of cathepsin L
T1 construct: purchased CN Biosciences
Method: Unless otherwise stated, all general chemicals and biochemicals were purchased from either the Sigma Chemical Company, Poole, Dorset, U.K or from Fisher Scientific UK, Loughborough, Leicestershire, U.K. Absorbance assays were carried out in flat-bottomed 96-well plates (Spectra; Greiner Bio-One Ltd., Stonehouse, Gloucestershire, U.K.) using a SpectraMax PLUS384 plate reader (Molecular Devices, Crawley, U.K.). Fluorescence high throughput assays were carried out in either 384-well microtitre plates (Corning Costar 3705 plates, Fisher Scientific) or 96-well ‘U’ bottomed Microfluor W1 microtitre plates (Thermo Labsystems, Ashford, Middlesex, U.K.). Fluorescence assays were monitored using a SpectraMax Gemini fluorescence plate reader (Molecular Devices). For substrates employing either a 7-amino-4-methylcoumarin (AMC) or a 7-amino-4-trifluoromethylcoumarin (AFC) fluorophore, assays were monitored at an excitation wavelength of 365 nm and an emission wavelength of 450 nm and the fluorescence plate reader calibrated with AMC. For substrates employing a 3-amino-benzoyl (Abz) fluorophore, assays were monitored at an excitation wavelength of 310 nm and an emission wavelength of 445 nm; the fluorescence plate reader calibrated with 3-amino-benzamide (Fluka). Unless otherwise indicated, all the peptidase substrates were purchased from Bachem UK, St Helens, Merseyside, UK. Substrates utilizing fluorescence resonance energy transfer methodology (i.e. FRET-based substrates) were synthesized at Incenta Limited using published methods (Atherton & Sheppard, Solid Phase Peptide Synthesis, IRL Press, Oxford, U.K, 1989) and employed Abz (2-aminobenzoyl) as the fluorescence donor and 3-nitro-tyrosine [Tyr(NO2)] as the fluorescence quencher (Meldal, M. and Breddam, K., Anal. Biochem, 195, 141-147, 1991). Hydroxyethylpiperazine ethanesulfonate (HEPES), tris-hydroxylmethyl aminomethane (tris) base, bis-tris-propane and all the biological detergents (e.g. CHAPS, zwittergents, etc.) were purchased from CN Biosciences UK, Beeston, Nottinghamshire, U.K. Glycerol was purchased from Amersham Pharmacia Biotech, Little Chalfont, Buckinghamshire, U.K. Stock solutions of substrate or inhibitor were made up to 10 mM in 100% dimethylsulfoxide (DMSO) (Rathburns, Glasgow, U.K.) and diluted as appropriately required. In all cases the DMSO concentration in the assays was maintained at less than 1% (vol./vol.).
Assay protocols were based on literature precedent (Table 4; Barrett, A. J., Rawlings, N. D. and Woessner, J. F., 1998, Handbook of Proteolytic Enzymes, Academic Press, London and references therein) and modified as required to suit local assay protocols. Enzyme was added as required to initiate the reaction and the activity, as judged by the change in fluorescence upon conversion of substrate to product, was monitored over time. All assays were carried out at 25±1° C.
Bovine cathepsin S, human cathepsin L, human cathepsin H and human cathepsin B were obtained from CN Biosciences. Recombinant human cathepsin S, human cathepsin K and human cathepsin X were obtained from Dr. Boris Turk (Josef Stefan Institute, Ljubljana, Slovenia). Unless otherwise stated, all peptidase activity assays were carried out in 10 mM bis-tris-propane (BTP), pH 6.5 containing 1 mM EDTA, 5 mM 2-mercaptoethanol and 1 mM CaCl2. Human cathepsin H activity assays were carried out in 10 mM BTP pH 6.5, 142 mM NaCl2, 1 mM CaCl2, 1 mM EDTA, 1 mM DTT, 0.035 mM Zwittergent 3-16. Human cathepsin K assays were carried out in 100 mM sodium acetate; pH 5.5 containing 20 mM L-cysteine and 1 mM EDTA (Bossard, M. J., et. al., J. Biol. Chem., 21, 12517-12524, 1996). Human cathepsin X assays were carried out in 100 mM sodium acetate; pH 5.5 containing 20 mM L-cysteine; 0.05% (w/v) Brij 35 and 1 mM EDTA (Santamaria, I., et. al., J. Biol. Chem., 273, 16816-16823, 1998; Klemencic, J, et al., Eur. J. Biochem., 267, 5404-5412, 2000). […]

CPB2.8ΔCTE = molecular target: T2, CPB2.8ΔCTE (Leishmania mexicana, UniProt P36400); assay: Leishmania mexicana cysteine protease B (CPB) peptidase activity assay (Ki); conditions: Ki, inhibitors of Leismania mexicana CPB protease
T2 construct: Wild-type recombinant CPB without the C-terminal extention (i.e. CPB2.8ΔCTE); Dr. Jeremy Mottram (Wellcome Centre for Molecular Parasitology, University of Glasgow)
How it was run: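 Apparent Ki was derived by regression of activity against inhibitor concentration, assuming pure-competitive reversible binding. Reaction: 0.25 nM CPB lacking the C-terminal extension, pH 5.5 acetate buffer (1 mM EDTA, 200 mM NaCl, 10 mM DTT), 25 °C, followed by continuous substrate fluorescence.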

T2 sequence (P36400 126-343, stated change not applied): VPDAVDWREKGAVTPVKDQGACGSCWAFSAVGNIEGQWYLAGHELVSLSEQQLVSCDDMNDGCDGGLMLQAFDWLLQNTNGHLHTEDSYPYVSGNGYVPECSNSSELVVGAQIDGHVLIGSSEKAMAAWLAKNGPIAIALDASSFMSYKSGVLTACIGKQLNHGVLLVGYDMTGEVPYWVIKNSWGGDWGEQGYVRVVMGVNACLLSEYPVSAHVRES
Wild-type cruzipain, sequence (P25779 whole entry): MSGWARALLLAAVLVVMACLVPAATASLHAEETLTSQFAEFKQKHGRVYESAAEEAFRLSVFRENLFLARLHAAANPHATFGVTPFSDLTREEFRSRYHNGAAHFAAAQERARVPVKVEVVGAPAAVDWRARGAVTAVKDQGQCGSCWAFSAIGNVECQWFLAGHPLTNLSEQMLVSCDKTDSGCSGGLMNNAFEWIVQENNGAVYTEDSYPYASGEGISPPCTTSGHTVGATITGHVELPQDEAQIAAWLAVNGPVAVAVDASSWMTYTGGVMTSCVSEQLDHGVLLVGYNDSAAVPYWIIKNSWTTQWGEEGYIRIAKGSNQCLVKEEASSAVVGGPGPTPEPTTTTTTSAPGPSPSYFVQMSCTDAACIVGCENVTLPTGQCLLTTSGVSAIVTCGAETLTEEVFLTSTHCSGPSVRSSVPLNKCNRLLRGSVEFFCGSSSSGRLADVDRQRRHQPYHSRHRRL
T1 sequence (P07711 114-333): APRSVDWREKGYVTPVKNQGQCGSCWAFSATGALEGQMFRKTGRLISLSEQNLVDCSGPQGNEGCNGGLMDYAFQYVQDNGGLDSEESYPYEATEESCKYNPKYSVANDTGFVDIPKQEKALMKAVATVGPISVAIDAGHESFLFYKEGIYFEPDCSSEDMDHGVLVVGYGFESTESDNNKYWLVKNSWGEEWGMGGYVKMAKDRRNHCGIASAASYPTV

Compound	Ki (Wild-type cruzipain)	Ki (human cathepsin L)	Ki (CPB2.8ΔCTE)
O=C1CN(C(=O)c2ccccc2)[C@@H]2CCN(C(=O)[C@H](CC3CCCCC3)NC(=O)N3CCOCC3)[C@H]12 [Example 280, (3aR,6aS)-Morpholine-4-carboxylic acid [(1S)-2-(4-benzoyl-6-oxo-hexahydro-pyrrolo[3,2-b]pyrrole-1-yl)-1-cyclohexylmethyl-2-oxo-ethyl]-amide]		< 5 µM	
CC(C)C[C@H](NC(=O)c1cccc(CN)c1)C(=O)N1CC[C@@H]2[C@H]1C(=O)CN2C(=O)Cc1ccccc1F [Example 178, (3aR,6aS)-3-Aminomethyl-N-((1S)-1-{4-[2-(2-fluoro-phenyl)-acetyl]-6-oxo-hexahydro-pyrrolo[3,2-b]pyrrole-1-carbonyl}-3-methyl-butyl)-benzamide]		< 5 µM	< 5 µM
Cc1ccccc1C(=O)N1CC(=O)[C@@H]2[C@H]1CCN2C(=O)[C@H](CC1CCCCC1)NC(=O)c1ccsc1 [Example 291, (3aR,6aS)-Thiophene-3-carboxylic acid {(1S)-1-cyclohexylmethyl-2-[4-(2-methyl-benzoyl)-6-oxo-hexahydro-pyrrolo[3,2-b]pyrrol-1-yl]-2-oxo-ethyl}-amide]		< 5 µM	
O=C(N[C@@H](CSCc1ccccc1)C(=O)N1CC[C@@H]2[C@H]1C(=O)CN2C(=O)c1ccccc1)c1cccs1 [Example 282, (3aR,6aS)-Thiophene-2-carboxylic acid [(1R)-2-(4-benzoyl-6-oxo-hexahydro-pyrrolo[3,2-b]pyrrole-1-yl)-1-benzylsulfanylmethyl-2-oxo-ethyl]-amide]		< 5 µM	
O=C(N[C@@H](CC1CCCCC1)C(=O)N1CC[C@@H]2[C@H]1C(=O)CN2C(=O)c1ccccc1)c1ccco1 [Example 288, (3aR,6aS)-Furan-2-carboxylic acid [(1S)-2-(4-benzoyl-6-oxo-hexahydro-pyrrolo[3,2-b]pyrrole-1-yl)-1-cyclohexylmethyl-2-oxo-ethyl]-amide]	< 5 µM	< 5 µM	
CC(C)C[C@H](NC(=O)c1cccc(CN)c1)C(=O)N1CC[C@@H]2[C@H]1C(=O)CN2C(=O)[C@@H](N)c1ccccc1 [Example 182, (3aR,6aS)-3-Aminomethyl-N-{(1S)-1-[4-((2S)-2-amino-2-phenyl-acetyl)-6-oxo-hexahydro-pyrrolo[3,2-b]pyrrole-1-carbonyl)-3-methyl-butyl}-benzamide]		< 5 µM	< 5 µM
NCc1cccc(C(=O)N[C@@H](CSCc2ccccc2)C(=O)N2CC[C@@H]3[C@H]2C(=O)CN3C(=O)c2ccccc2)c1 [Example 278, (3aR,6aS)-3-Aminomethyl-N-[(1R)-2-(4-benzoyl-6-oxo-hexahydro-pyrrolo[3,2-b]pyrrole-1-yl)-1-benzylsulfanylmethyl-2-oxo-ethyl]-benzamide]		< 5 µM	< 5 µM
CC(C)C[C@H](NC(=O)c1cccc(CN)c1)C(=O)N1CC[C@@H]2[C@H]1C(=O)CN2C(=O)[C@H](N)c1ccccc1 [Example 181, (3aR,6aS)-3-Aminomethyl-N-{(1S)-1-[4-((2R)-2-amino-2-phenyl-acetyl)-6-oxo-hexahydro-pyrrolo[3,2-b]pyrrole-1-carbonyl]-3-methyl-butyl}-benzamide]		< 5 µM	< 5 µM
O=C(N[C@@H](CC1CCCCC1)C(=O)N1CC[C@@H]2[C@H]1C(=O)CN2C(=O)c1ccccc1)C(c1ccccc1)c1ccccc1 [Example 270, (3aR,6aS)-N-[(1S)-2-(4-Benzoyl-6-oxo-hexahydro-pyrrolo[3,2-b]pyrrol-1-yl)-1-cyclohexylmethyl-2-oxo-ethyl]-2,2-diphenyl-acetamide]		< 5 µM	
CN(C)c1ccc(C(=O)N[C@@H](Cc2ccc(O)cc2)C(=O)N2CC[C@@H]3[C@H]2C(=O)CN3C(=O)c2ccccc2)cc1 [Example 356, (3aR,6aS)-N-[(1S)-2-(4-Benzoyl-6-oxo-hexahydro-pyrrolo[3,2-b]pyrrol-1-yl)-1-(4-hydroxy-benzyl)-2-oxo-ethyl)-4-dimethylamino-benzamide]		< 5 µM	
CN(C)c1ccc(C(=O)N[C@@H](Cc2ccc(O)cc2)C(=O)N2CC[C@@H]3[C@H]2C(=O)CN3C(=O)c2cccc(S(C)(=O)=O)c2)cc1 [Example 358, (3aR,6aS)-4-Dimethylamino-N-{(1S)-1-(4-hydroxy-benzyl)-2-[4-(3-methanesulfonyl-benzoyl)-6-oxo-hexahydro-pyrrolo[3,2-b]pyrrol-1-yl]-2-oxo-ethyl}-benzamide]		< 5 µM	

Continued, in another order:

Ki (Wild-type cruzipain)	Ki (human cathepsin L)	Compound	Ki (CPB2.8ΔCTE)
< 5 µM	< 5 µM	O=C(N[C@@H](CC1CCCCC1)C(=O)N1CC[C@@H]2[C@H]1C(=O)CN2C(=O)c1ccc2ccccc2c1)c1ccsc1 [Example 256, (3aR,6aS)-Thiophene-3-carboxylic acid {(1S)-1-cyclohexylmethyl-2-[4-(naphthalene-2-carbonyl)-6-oxo-hexahydro-pyrrolo[3,2-b]pyrrol-1-yl]-2-oxo-ethyl}-amide]	
< 5 µM	< 5 µM	O=C(N[C@@H](CC1CCCCC1)C(=O)N1CC[C@@H]2[C@H]1C(=O)CN2C(=O)c1ccccc1)c1cccs1 [Example 287, (3aR,6aS)-Thiophene-2-carboxylic acid [(1S)-2-(4-benzoyl-6-oxo-hexahydro-pyrrolo[3,2-b]pyrrole-1-yl)-1-cyclohexylmethyl-2-oxo-ethyl]-amide]	
	< 5 µM	O=C(N[C@@H](CSCc1ccccc1)C(=O)N1CC[C@@H]2[C@H]1C(=O)CN2C(=O)c1ccsc1)c1ccsc1 [Example 272, (3aR,6aS)-Thiophene-3-carboxylic acid {(1R)-1-benzylsulfanylmethyl-2-oxo-2-[6-oxo-4-(thiophene-3-carbonyl)-hexahydro-pyrrolo[3,2-b]pyrrol-1-yl]-ethyl}-amide]	
< 5 µM	< 5 µM	CC(C)C[C@H](NC(=O)c1ccc2ccccc2n1)C(=O)N1CC[C@@H]2[C@H]1C(=O)CN2C(=O)c1cccnc1 [Example 18, (3aR,6aS)-Quinoline-2-carboxylic acid {(1S)-3-methyl-1-[6-oxo-4-(pyridine-3-carbonyl)-hexahydro-pyrrolo[3,2-b]pyrrole-1-carbonyl]-butyl}-amide]	
< 5 µM	< 5 µM	CC(C)C[C@H](NC(=O)c1ccc(N(C)C)cc1)C(=O)N1CC[C@@H]2[C@H]1C(=O)CN2C(=O)c1ccc(Cl)o1 [Example 244, (3aR,6aS)-N-{(1S)-1-[4-(5-Chloro-furan-2-carbonyl)-6-oxo-hexahydro-pyrrolo[3,2-b]pyrrole-1-carbonyl]-3-methyl-butyl}-4-dimethylamino-benzamide]	
	< 5 µM	O=C(N[C@@H](CC1CCCCC1)C(=O)N1CC[C@@H]2[C@H]1C(=O)CN2C(=O)c1ccccc1)c1ccoc1 [Example 289, (3aR,6aS)-Furan-3-carboxylic acid [(1S)-2-(4-benzoyl-6-oxo-hexahydro-pyrrolo[3,2-b]pyrrole-1-yl)-1-cyclohexylmethyl-2-oxo-ethyl]-amide]	
